Reference: US10837044B2, “Automated method for analyzing and interpreting an antimicrobial susceptibility” (FONDATION MEDITERRANEE INFECTION, priority 2014, dated 2020)

What was measured:
BSBL bacteria = conditions: all of the BSBL bacteria in Table C1
Excerpt: Synergies are generated with the method on agar by the antibiotics diffusing in the agar as a result of the fact that providing the distance between two antibiotics is small enough (in the range 2 centimeters (cm) to 2.5 cm for Gram negative bacteria) they are capable of diffusing over a common portion of the agar, and as a result it is the association of the two antibiotics in this specific location that makes it possible, where appropriate, to see the appearance of a new inhibition zone, which is the synergy zone.
In the event of synergy occurring, it is possible to see mechanisms of synergy between two antibiotics since an additional inhibition zone appears generally between the two antibiotics in question. It may be in the form of an enlargement of the diameter around the disk A going towards the disk B if A and B present mutual synergy.
The BSBL phenotype includes a synergy phenotype between ceftriaxone and clavulanic acid, and thus between CRO and TCC or AMC (for all of the BSBL bacteria in the table).

Klebsiella oxytoca = assay: antibiogram by diffusion on Mueller-Hinton agar with antibiotic wafers; assay type: cell-based; conditions: Table C1; K. oxytoca phenotype Wild; six wafers, disk loads of Table B
Enterobacter aerogenes = assay: as above; assay type: cell-based; conditions: Table C1, six wafers, disk loads of Table B
Escherichia coli = assay: as above; assay type: cell-based; conditions: for synergy zone between two antibiotic wafers placed side by side: E. coli strain of BSBL phenotype, champagne-cork shaped inhibition zone; for resistance (I, R) or sensitivity (S): Table C1, disk loads of Table B; for resistant (I/R) or sensitive (S): Table C2, square dish
Proteus mirabilis = assay: as above; assay type: cell-based; conditions: Table C1, six wafers, disk loads of Table B
Enterobacter cloacea = assay: as above; assay type: cell-based; conditions: Table C1, six wafers, disk loads of Table B
Klebsiella pneumoniae = assay: as above; assay type: cell-based; conditions: for resistance (I, R) or sensitivity (S): Table C1, six wafers, disk loads of Table B; for resistant (I/R) or sensitive (S): Table C2, sixteen wafers, square dish
[1] = E. coli phenotype BSBL, six wafers
[2] = E. coli phenotype Carbapenemase, six wafers
[3] = E. coli phenotype Hl cephalosporinase, six wafers
[4] = E. coli phenotype Hl penicillinase, six wafers
[5] = E. coli phenotype Inhibitor resistant penicillinase, six wafers
[6] = E. coli phenotype Ll penicillinase, six wafers
[7] = E. coli phenotype Wild, six wafers in a circle
[8] = E. coli phenotype Cephalosporinase + R to fluoroquinolones + R to cotrimoxazole + partial R to aminosides, sixteen wafers
[9] = E. coli phenotype Hl penicillinase + R to fluoroquinolones + R to cotrimoxazole + partial R to aminosides, sixteen wafers
[10] = E. coli phenotype Wild, sixteen wafers in a rectangular grid
[11] = P. mirabilis phenotype Hl cephalosporinase
[12] = P. mirabilis phenotype Hl penicillinase
[13] = P. mirabilis phenotype Inhibitor resistant penicillinase
[14] = P. mirabilis phenotype Ll penicillinase
[15] = K. pneumoniae phenotype Carbapenemase
[16] = K. pneumoniae phenotype Hl cephalosporinase
[17] = K. pneumoniae phenotype Hl penicillinase
[18] = K. pneumoniae phenotype Ll penicillinase
[19] = K. pneumoniae phenotype Cephalosporinase + R to aminosides + R to cotrimoxazole

Molecule | synergy phenotype between antibiotics (BSBL bacteria) | resistance (I, R) or sensitivity (S) (Klebsiella oxytoca) | resistance (I, R) or sensitivity (S) (Enterobacter aerogenes; E. aerogenes phenotype BSBL) | resistance (I, R) or sensitivity (S) (Enterobacter aerogenes; E. aerogenes phenotype Wild) | synergy zone between two antibiotic wafers placed side by side (Escherichia coli) | resistance (I, R) or sensitivity (S) (Escherichia coli; [1]) | resistance (I, R) or sensitivity (S) (Escherichia coli; [2]) | resistance (I, R) or sensitivity (S) (Escherichia coli; [3]) | resistance (I, R) or sensitivity (S) (Escherichia coli; [4]) | resistance (I, R) or sensitivity (S) (Escherichia coli; [5]) | resistance (I, R) or sensitivity (S) (Escherichia coli; [6]) | resistance (I, R) or sensitivity (S) (Escherichia coli; [7]) | resistant (I/R) or sensitive (S) (Escherichia coli; [8]) | resistant (I/R) or sensitive (S) (Escherichia coli; [9]) | resistant (I/R) or sensitive (S) (Escherichia coli; [10]) | resistance (I, R) or sensitivity (S) (Proteus mirabilis; [11]) | resistance (I, R) or sensitivity (S) (Proteus mirabilis; [12]) | resistance (I, R) or sensitivity (S) (Proteus mirabilis; [13]) | resistance (I, R) or sensitivity (S) (Proteus mirabilis; [14]) | resistance (I, R) or sensitivity (S) (Proteus mirabilis; P. mirabilis phenotype Wild) | other results
amoxicillin-clavulanic acid [AMC] | synergy | S | R | S | synergy zone | R | R | R | I/R | R | S | S | R | I | S | R | I | R | S | S | synergy zone between two antibiotic wafers placed side by side (Escherichia coli; listed as amoxicillin+clavulanic acid): synergy; resistance (I, R) or sensitivity (S) (Enterobacter cloacea; E. cloacae phenotype BSBL): R; resistance (I, R) or sensitivity (S) (Enterobacter cloacea; E. cloacae phenotype Wild): S; resistance (I, R) or sensitivity (S) (Klebsiella pneumoniae; K. pneumoniae phenotype BSBL): R; resistance (I, R) or sensitivity (S) (Klebsiella pneumoniae; [15]): R; resistance (I, R) or sensitivity (S) (Klebsiella pneumoniae; [16]): I/R; resistance (I, R) or sensitivity (S) (Klebsiella pneumoniae; [17]): I/R; resistance (I, R) or sensitivity (S) (Klebsiella pneumoniae; [18]): S; resistance (I, R) or sensitivity (S) (Klebsiella pneumoniae; K. pneumoniae phenotype Wild): S; resistant (I/R) or sensitive (S) (Klebsiella pneumoniae; [19]): R; resistant (I/R) or sensitive (S) (Klebsiella pneumoniae; K. pneumoniae phenotype Wild): R
CO/N=C(\C(=O)N[C@@H]1C(=O)N2C(C(=O)O)=C(CSc3nc(=O)c(=O)[nH]n3C)CS[C@H]12)c1csc(N)n1 [CRO, ceftriaxone] | synergy | S | R | S | synergy zone | R | R | R | S | S | S | S | R | S | S | R | S | S | S | S | synergy zone between two antibiotic wafers placed side by side (Escherichia coli; listed as ceftriaxone): synergy; resistance (I, R) or sensitivity (S) (Enterobacter cloacea; E. cloacae phenotype BSBL): R; resistance (I, R) or sensitivity (S) (Enterobacter cloacea; E. cloacae phenotype Wild): S; resistance (I, R) or sensitivity (S) (Klebsiella pneumoniae; K. pneumoniae phenotype BSBL): I/R; resistance (I, R) or sensitivity (S) (Klebsiella pneumoniae; [15]): R; resistance (I, R) or sensitivity (S) (Klebsiella pneumoniae; [16]): I/R; resistance (I, R) or sensitivity (S) (Klebsiella pneumoniae; [17]): I; resistance (I, R) or sensitivity (S) (Klebsiella pneumoniae; [18]): S; resistance (I, R) or sensitivity (S) (Klebsiella pneumoniae; K. pneumoniae phenotype Wild): S; resistant (I/R) or sensitive (S) (Klebsiella pneumoniae; [19]): R; resistant (I/R) or sensitive (S) (Klebsiella pneumoniae; K. pneumoniae phenotype Wild): R
